Test results as given in EP4166560A1, “TRI-SUBSTITUTED TETRAHYDROFURANS AND USE THEREOF” (Consejo Superior de Investigaciones Cientificas, priority 2021, dated 2023).
Values joined by “and” are separate entries in the source; they are usually repeats but may differ in a detail not shown here. Equal values may be shown once. “Also recorded” adds a separate entry of the source. Numbered stars: 1 amine (or outer) side, 2 acyl side, 3 side chain; on linkers, the order of the positions; unused ones are H or OH. Bridge positions count the residues as written; N and C are the ends. Square brackets hold non-standard residues; d marks the D form. Peptide text beside a SMILES is read from it. * marks the point of attachment. X1 = CC[C@H](C)[C@@H](N[*:1])[C@@H](O)CC(=O)O[C@H](C(=O)[C@H](C)C(=O)[*:2])C(C)C; NMeY = CN[C@@H](Cc1ccc(O)cc1)C(=O)O; dNMeL = CN[C@H](CC(C)C)C(=O)O; Pyruvoyl = CC(=O)C(=O)*

What was measured:
TGEV [1] = assay: Quantitation of TGEV-induced cell death in ST cells by real-time automated microscopy (Cytotox); type: cell-based, transmissible gastroenteritis virus (TGEV); conditions: for activity against TGEV (reversion of TGEV-induced cell death): MOI 0.01, 48 h, result in words; for EC50: read-out: EC50 on TGEV-induced cell death; for bottom plateau, dead cells: TGEV MOI 0.01, 48 h, dose-response fit
TGEV [2] = assay: TGEV viral titration by plaque assay in ST cells; type: cell-based, transmissible gastroenteritis virus (TGEV)
Method: ST cells were inoculated with TGEV at a MOI of 0.01 infectious particles per cell and, after 24 h of incubation under standard culture conditions, the culture medium was subjected to the plaque assay, which determines the number of viral infectious particles present per volume unit (viral titer). A range of SPL-0 concentrations was tested in order to obtain a dose-response curve. The TGEV titer in the harvested medium decreased as the SPL-0 dose increased (Figure 6).

TGEV [3] = assay: TGEV RNA quantitation by RT-qPCR in ST cells; type: cell-based, transmissible gastroenteritis virus (TGEV)
Method: ST cells were inoculated with TGEV at a MOI of 0.01 infectious particles per cell and, after 24 h of incubation under standard culture conditions, total RNA was extracted and TGEV RNA was quantified by RT-qPCR. A range of SPL-0 concentrations was tested in order to obtain a dose-response curve. The amount of TGEV RNA decreased as the SPL-0 dose increased (Figure 7).

MHV = MHV RNA quantitation by RT-qPCR in CCL9.1 cells; type: cell-based, murine hepatitis virus (MHV)
OC43 = OC43 RNA quantitation by RT-qPCR in BHK-21 cells; type: cell-based, human coronavirus OC43
SARS-CoV-2 [4] = assay: SARS-CoV-2 infection quantified by immunofluorescence (flow cytometry) in VeroE6 cells; type: cell-based
Method: (§1) To determine the activity of SPL-0 against SARS-CoV-2, a dose-response assay was performed in the range of 0.2 µM to 50 µM using VeroE6 kidney cells from African green monkey (Cercopithecus aethiops). Cell cultures were inoculated with SARS-CoV-2 at an MOI of 0.01 infectious particles per cell and analyzed after 48 h. The percentage of infected cells was obtained by flow cytometry using a monoclonal antibody against the virus spike protein S as well as a fluorescently labelled secondary antibody (immunofluorescence). The percentage of infected cells decreased as the SPL-0 increased (Figure 8a). […] In addition, for each dose, cell viability assays were performed in the absence of virus. For this, the MTT assay, a standard procedure for determining cell metabolic activity, was used.

SARS-CoV-2 [5] = assay: SARS-CoV-2 infection quantified by immunofluorescence (flow cytometry) in A549 cells; type: cell-based
Method: as §1, with “The” for “To determine the”, “SARS-CoV-2 was determined in A549 human lung cells, which provide a biologically relevant model, since that lungs are a primary target of SARS-CoV-2. For this,” for “SARS-CoV-2,”, “µM.” for “µM using VeroE6 kidney cells from African green monkey (Cercopithecus aethiops).”, “72” for “48”, “9a).” for “8a).”, “assay” for “assay, a standard procedure for determining cell metabolic activity,”

CVB3 = CVB3 viral titration by plaque assay in HeLa cells; type: cell-based, coxsackievirus B3 (CVB3)
Method: CVB3 belongs to the picornavirus family. […] Coronaviruses and picornaviruses share certain broad features. Both are plus-strand RNA viruses. However, they are otherwise largely unrelated virus groups. The effect of SPL-0 on CVB3 infection was determined in human HeLa cells. HeLa cells were inoculated with CVB3 at a MOI of 0.01 infectious particles per cell and, after 24 h of incubation under standard culture conditions, the medium was subjected to the plaque assay, which determines the number of viral infectious particles present per volume unit (viral titer). A range of SPL-0 concentrations was to obtain a dose-response curve. The CVB3 titer in the harvested medium decreased as the SPL-0 dose increased (Figure 10). […] Therefore, the antiviral action of SPL-0 extends beyond coronaviruses.

swine testis (ST) cells = conditions: dose range 2-100 µM
VeroE6 kidney cells = conditions: MTT, 0.2 µM to 50 µM
A549 human lung cells = conditions: MTT, 0.2 µM to 50 µM
in vitro [6] = conditions: pig, st cells
in vitro [7] = conditions: african green monkey, veroe6 cells
in vitro [8] = conditions: human, a549 cells
SARS-CoV-2 [9] = conditions: White et al. 2021; result in words; cited from earlier work
[10] = Alphacoronavirus 1, ST cells, MOI 0.01, 48 h after viral inoculation
[11] = relative to untreated control, dose-response fit

For C[C@@H]1O[C@@H](Cc2ccccc2)CC1[Si](C)(C)C (some centres unmarked) [SPL-5], the “activity against TGEV (reversion of TGEV-induced cell death)” value (shortened to “activity against TGEV”) (TGEV [1]; ST cells) was “did not revert TGEV-induced cell death; also recorded: Inactive”.

With CC(C)C[C@H]1C[C@@H]([Si](c2ccccc2)(c2ccccc2)c2ccccc2)[C@H](CCCCl)O1 [SPL-6] the EC50 (TGEV [1]; [10]) was 30.5 µM, the “activity against TGEV” value (TGEV [1]; ST cells) was “partially reverts TGEV-induced cell death; also recorded: Active” and the “bottom plateau, dead cells” value (TGEV [1]; ST cells) was 14.8%.

In the case of C[C@H]1OC[C@@H](c2ccccc2)[C@H]1[Si](c1ccccc1)(c1ccccc1)c1ccccc1 [SPL-4], the EC50 (TGEV [1]; [10]) is reported as 15.8 µM, the “activity against TGEV” value (TGEV [1]; ST cells) is reported as “partially reverts TGEV-induced cell death; also recorded: Active” and the “bottom plateau, dead cells” value (TGEV [1]; ST cells) is reported as 11.4%.

In the case of C[C@@H]1O[C@@H](Cc2ccccc2)CC1[Si](c1ccccc1)(c1ccccc1)c1ccccc1 (some centres unmarked) [SPL-0], the EC50 (TGEV [1]; Alphacoronavirus 1, 48 h) is reported as 13.1 µM, the “activity against TGEV” value (TGEV [1]; ST cells) is reported as “partially reverts TGEV-induced cell death; also recorded: Active” and the “bottom plateau, dead cells” value (TGEV [1]; ST cells) is reported as 16.1%. The EC50 (TGEV [2]; Alphacoronavirus 1, viral titration (plaque assay), ST cells, MOI 0.01, 24 h, read-out: EC50 against TGEV) was 15.6 µM, the “bottom plateau, estimated viral titer” value (TGEV [2]; [11]) was 0% and the EC50 (TGEV [3]; Alphacoronavirus 1, RT-qPCR, ST cells, MOI 0.01, 24 h, read-out: EC50 against TGEV) was 4.35 µM. For the same compound, the “bottom plateau, viral RNA” value (TGEV [3]; [11]) was 0%, the “amount of MHV RNA, % of the amount obtained in control cultures receiving no drug” value (MHV; 20 µM, MOI 0.01, 24 h) was 17.0 ± 2.4% and the EC50 (MHV; Murine coronavirus, RT-qPCR, inferred from single dose 20 µM, read-out: EC50 against MHV) was < 20 µM. The “amount of OC43 RNA, % of the amount obtained in control cultures receiving no drug” value (OC43; 20 µM, MOI 0.01, 4 days) was 4.16 ± 0.95%, the EC50 (OC43; Betacoronavirus 1, OC43, RT-qPCR, inferred from single dose 20 µM, read-out: EC50 against OC43) was < 20 µM and the EC50 (SARS-CoV-2 [4]; Severe acute respiratory syndrome coronavirus 2, Vero C1008, immunofluorescence, MOI 0.01, 48 h, read-out: EC50 against SARS-CoV-2 in VeroE6 cells) was 27.5 µM. The “bottom plateau, infected cells” value (SARS-CoV-2 [4]; VeroE6 cells, dose-response fit) was 1.6%, the “estimated bottom plateau, infected cells” value (SARS-CoV-2 [5]; A549 cells, dose-response fit) was -0.37% and the EC50 (SARS-CoV-2 [5]; Severe acute respiratory syndrome coronavirus 2, A549, immunofluorescence, MOI 0.01, 72 h, read-out: EC50 against SARS-CoV-2 in A549 cells) was 12.9 µM. For the same compound, the EC50 (CVB3; Enterovirus B, CVB3, viral titration (plaque assay), HeLa cells, MOI 0.01, 24 h, read-out: EC50 against CVB3) was 2950 nM, the “bottom plateau, estimated viral titer” value (CVB3; [11]) was 0% and the “percentage of dead cells at 48 h” value (swine testis (ST) cells; ST cell cultures not inoculated with TGEV) was < 12% and 2.5-12.0%. For the same compound, the cytotoxic effects (swine testis (ST) cells; ST cells, no virus, result in words) was “no detectable cytotoxic effects”, the “percentage of viable cells at 48 h” value (VeroE6 kidney cells; uninfected VeroE6 cells) was > 85% and 85.0-93.3% and the cytotoxic effects (VeroE6 kidney cells; VeroE6 cells, result in words) was “no cytotoxic effects”. For the same compound, the cytotoxic effects (A549 human lung cells; A549 cells, result in words) was “no cytotoxic effects”, the “percentage of viable cells at 48 h” value (A549 human lung cells; uninfected A549 cells) was > 89% and 89.0-100% and the CC50 at 48 h (in vitro [6]) was > 100 µM. For the same compound, the CC50 at 48 h (in vitro [7]) was > 50 µM and the CC50 at 48 h (in vitro [8]) was > 50 µM.

For CC[C@H](C)[C@H]1NC(=O)[C@@H](NC(=O)[C@@H](CC(C)C)N(C)C(=O)[C@@H]2CCCN2C(=O)C(C)=O)[C@@H](C)OC(=O)[C@H](Cc2ccc(OC)cc2)N(C)C(=O)[C@@H]2CCCN2C(=O)[C@H](CC(C)C)NC(=O)[C@@H](C)C(=O)[C@H](C(C)C)OC(=O)C[C@@H]1O [Aplidin, plitidepsin] (Pyruvoyl-P[dNMeL]T[X1]LP[NMeY](Me); ester 3-C), the “in vitro activity against SARS-CoV-2” value (SARS-CoV-2 [9]) is listed as “potent in vitro activity”.

For CCCCCCCCCC[C@H]1CC([Si](c2ccccc2)(c2ccccc2)c2ccccc2)[C@H](C)O1 (stereo partly drawn) [SPL-1, 2,5-trans-(5-decyl-2-methyltetrahydrofuran-3-yl)triphenylsilane], the “activity against TGEV” value (TGEV [1]; ST cells) was “did not revert TGEV-induced cell death; also recorded: Inactive”.
